Laboratory results as given in article PMC10291549, “Reaction Behavior of [1,3-Diethyl-4,5-diphenyl-1H-imidazol-2-ylidene] Containing Gold(I/III) Complexes against Ingredients of the Cell Culture Medium and the Meaning on the Potential Use for Cancer Eradication Therapy” (Journal of Medicinal Chemistry, 2023).
Like-named read-outs stand apart in the source and are kept apart here.

Experiments:
[1] = system: A549 cells; format: cell-based; conditions: 72 h incubation; mean ± SD of two or three independent experiments; read-out: metabolic activity IC50, A549
[2] = system: A549-R cells (Taxol/Paclitaxel-resistant subclone); format: cell-based; conditions: 72 h incubation; mean ± SD of two or three independent experiments; read-out: metabolic activity IC50, A549-R
[3] = system: K562 cells; format: cell-based; conditions: 72 h incubation; mean ± SD of two or three independent experiments; read-out: metabolic activity IC50, K562
[4] = system: K562-R cells (Doxorubicin-resistant subclone); format: cell-based; conditions: 72 h incubation; mean ± SD of two or three independent experiments; read-out: metabolic activity IC50, K562-R
[5] = system: MCF-7 cells; format: cell-based, human; conditions: 72 h incubation; mean ± SD of two or three independent experiments; read-out: metabolic activity IC50, MCF-7
[6] = system: MCF-7TamR cells (Tamoxifen-resistant subline); format: cell-based, human; conditions: 72 h incubation; mean ± SD of two or three independent experiments; read-out: metabolic activity IC50, MCF-7TamR
[7] = system: A2780 cells; format: cell-based, human
[8] = system: A2780cis cells (Cisplatin-resistant); format: cell-based, human; conditions: 72 h incubation; mean ± SD of two or three independent experiments; read-out: metabolic activity IC50, A2780cis
[9] = system: IGROV1 cells; format: cell-based; conditions: 72 h incubation; mean ± SD of two or three independent experiments; read-out: metabolic activity IC50, IGROV1
[10] = system: IGROV1-CSC cells; format: cell-based; conditions: 72 h incubation; mean ± SD of two or three independent experiments; read-out: metabolic activity IC50, IGROV1-CSC
[11] = system: SV-80 lung fibroblast cells; test: Modified MTT assay in noncancerous cells; format: cell-based
[12] = HPLC reactivity study in chloride containing ACN/water; format: physicochemical; conditions: for conversion to 5: ACN/water 50/50, 6.0 g/L NaCl + 0.4 g/L KCl, 0.5 mM complex, rt
[13] = HPLC reactivity study with GSH in ACN/water; format: physicochemical; conditions: 20 equiv GSH; for substitution to (NHC)Au(I)-GSH adduct 12: t0h (1.5 min)
Experimental: (§1) All nucleophiles (chloride, amino acids, and GSH) were separately reacted with 5–11 in ACN/water = 50/50 (v/v) mixtures at a complex concentration 0.5 mM. This solvent composition was chosen to prevent precipitation of the complex and the formed degradation products.
(§2) Amino acids, as well as GSH, were used in 20-fold excess, as realized at a complex concentration of 10 μM in the cell culture medium. Thereto, the respective complex, dissolved in ACN (1 mM), was combined with the same amount of aqueous solution of the nucleophile (20 mM).
(§3) The mixture was then incubated for 24 h at rt and monitored at various time points via HPLC using an RP-C18 column and gradient elution (70/30 (v/v) to 90/10 (v/v)) of ACN/water (0.1% trifluoroacetic acid (TFA)).
(§4) Experiments in ACN/water: 1.0 mM solutions of the respective complex were prepared in ACN and diluted with HPLC-grade water (50/50, (v/v)) containing the double-concentrated amount of respective amino acid (20 mM), GSH (20 mM), sodium ascorbate (20 mM), or NADPH (20 mM). As a chloride source, an aqueous solution of KCl 0.8 g/L and NaCl 12 g/L was used. In each case, a final complex concentration of 0.5 mM was achieved. The solutions were incubated for 24 h at rt. For the experiments with RPMI 1640, the aqueous phase was replaced by a cell culture medium.
(§5) Samples (20 μL each) were taken at appropriate time points (t = 0 (1.5 min), 0.5, 1, 1.5, 2, 8, 12, and 24 h) and analyzed with a Shimadzu prominence HPLC system. The mobile phase consisted of ACN (HPLC-grade) and water (HPLC-grade) with 0.1% TFA. To achieve a separation of the compounds, gradient elution from (70/30 (v/v) to 90/10 (v/v)) of ACN/water (0.1% trifluoroacetic acid (TFA)) was used with a flow rate of 1 mL/min at an oven temperature of 35 °C. All solvents have been degassed before use. The injection volume was 20 μL, and the detection wavelength was set at 235 nm, to detect the gold complexes and the amino acids in the chromatogram.

[14] = HPLC degradation study in ACN/RPMI 1640 cell culture medium; conditions: for conversion to 5: ACN/RPMI 1640 50/50 (without FCS)
[15] = HPLC reactivity study with non-thiol containing amino acids in ACN/water; format: physicochemical; conditions: for formation of 8: t24h, 0.5 mM
Experimental: as §1, §2, §3, §4, §5

[16] = FCS influence on stability of 7 in RPMI 1640 (protein binding, HPLC); format: in vitro ADME; conditions: 4 h, 37 °C
Experimental: The complex (conc. 30 μM) dissolved in RPMI 1640 medium supplemented with 10% FCS was incubated for 4 h at 37 °C in the dark. Subsequently, the proteins were precipitated with ACN and the supernatant was dried by lyophilization. The remaining complexes were extracted from the lyophilizate with DCM. The organic layer was evaporated, and the residue was finally dissolved in 1 mL of ACN. This solution was then analyzed by HPLC as described above.
To 11 mL of RPMI 1640 including 10% FCS, 11 μL of a freshly prepared 3 mM DMF solution of 7 was added. The solution was then incubated for 4 h at 37 °C in the dark. Proteins were precipitated with 33 mL of ACN. The mixture was cooled to −30 °C and stored for 2 h at −20 °C. Subsequently, the supernatant was separated by centrifugation (3000 rpm), collected, and dried by lyophilization. The lyophilizate was extracted three times with 5 mL of DCM and finally dried under reduced pressure. The residue was taken up in 1 mL of ACN, and 30 μL was analyzed by the HPLC method described above. Peak area was used for quantification. The calibrations of 5, 7, and 8 were obtained by injecting 30 μL of the respective solution of pure substances in ACN at a concentration of 1–30 μM (R^2 > 0.99).

[17] = 72 h incubation, mean ± SD of two or three independent experiments, read-out: metabolic activity IC50, A2780
[18] = t24h, chloride containing ACN/water 50/50, 0.5 mM
[19] = t24h, ACN/RPMI 1640 50/50, 0.5 mM

Row | Compound | IC50 [1] [µM] | IC50 [2] [µM] | IC50 [3] [µM] | IC50 [4] [µM] | IC50 [5] [µM] | IC50 [6] [µM] | IC50 [7, 17] [µM] | IC50 [8] [µM] | IC50 [9] [µM] | IC50 [10] [µM] | conversion to 5 ([12]; t0h (1.5 min)) | substitution to (NHC)Au(I)-GSH adduct 12 ([13]; ACN/water 50/50, 0.5 mM) | conversion to 5 ([14]; t0h, 0.5 mM) | other results
1 | Bromido[1,3-diethyl-4,5-diphenyl-1H-imidazol-2-ylidene]gold(I) [Complex 6] | > 10 | > 10 | > 10 | > 10 | 4.54 ± 0.52 | 4.64 ± 0.44 | 9.38 ± 0.8 | 2.87 ± 0.33 | 5.78 ± 0.9 | 8.78 ± 0.6 | quantitatively | quantitatively | immediately converted | metabolic activity (remaining) in SV-80 cells ([11]; at 10 μM, mean of three independent experiments): 20%
2 | CCn1c(-c2ccccc2)c(-c2ccccc2)n(CC)[c]1=[Au][S]C[C@H](NC(=O)CC[C@H](N)C(=O)O)C(=O)NCC(=O)O [Complex 12] |  |  |  |  |  |  |  |  |  |  |  |  |  | IC50 relative to 5 (and 6) in A2780 cells, times higher / fold less active [7]: about 2 fold; IC50 relative to 5 (and 6) in A2780 cells, times higher / fold less active ([7]; listed as (NHC)Au(I)-GSH): 2 fold; IC50 ([7]; preliminary experiment, read-out: cell growth IC50, A2780): 15.9 µM
3 | Iodido[1,3-diethyl-4,5-diphenyl-1H-imidazol-2-ylidene]gold(I) [Complex 7] | 1.12 ± 0.17 | 1.21 ± 0.36 | 0.72 ± 0.3 | 1.53 ± 1.04 | 0.48 ± 0.08 | 1.63 ± 0.79 | 1.43 ± 0.4 | 0.4 ± 0.06 | 1.94 ± 0.35 | 0.47 ± 0.13 | 13.3% | 9.7% | 14.3% | metabolic activity (remaining) in SV-80 cells ([11]; at 1.5 μM): 77%; formation of 8 ([12]; t0h (1.5 min), chloride containing ACN/water 50/50, 0.5 mM): 3.6%; formation of 8 (ligand scrambling / reduction) [12, 18]: 18.9%; quantity of 5 formed [12, 18]: stayed constant; ratio of 7/8 ([15]; 20 equiv arginine (Arg), after 30 min, stable until 24 h): 90/10; reaction with amino acids ([15]; 20 equiv non-thiol containing amino acid, ACN/water 50/50): did not react; formation of 8 ([15]; 20 equiv glutamic acid (Glu), ACN/water 50/50): 31.6%; formation of 8 ([15]; 20 equiv methionine (Met), ACN/water 50/50): 27.5%; formation of 8 ([15]; pure ACN/water 50/50): 31.2%; start of ligand scrambling ([13]; time-dependent analysis): 1 h; formation of 8 ([13]; t24h, ACN/water 50/50, 0.5 mM): 9.8%; proportion of 12 ([13]; t24h, ACN/water 50/50, 0.5 mM): 4.7%; concentration in the free fraction after incubation of 7 ([16]; 7 (30 μM) in RPMI 1640 + 10% FCS, dark, protein precipitation with ACN, from HPLC peak areas): 780 nM; protein-bound fraction ([16]; 7 and its degradation products in RPMI 1640 + 10% FCS): about 50%; amount of 5 formed ([14]; during 24 h, ACN/RPMI 1640 50/50): remained constant; formation of 8 ([14]; t0h, ACN/RPMI 1640 50/50, 0.5 mM): 0.8%; formation of 8 [14, 19]: 23.1%; formation of GSH-adduct 12 [14, 19]: No GSH-adduct 12 could be detected
4 | Bis[1,3-diethyl-4,5-diphenyl-1H-imidazol-2-ylidene]diiodidogold(III) Hexafluorophosphate [Complex 11] | 0.25 ± 0.02 | 0.27 ± 0.04 | 0.97 ± 0.26 | 2.26 ± 1.08 | 0.19 ± 0.05 | 0.2 ± 0.07 | 0.28 ± 0.06 | 0.02 ± 0.01 | 1.28 ± 0.93 | 2.45 ± 0.97 |  |  |  | substitution to 9 ([12]; t0h, chloride containing ACN/water 50/50, 0.5 mM): 0.4%; time to complete conversion to 8 ([14]; ACN/RPMI 1640 50/50, 0.5 mM): ≤ 8 h
